Patent publication US20260242373A1, “NBD1 MODULATORS AND METHODS OF USING THE SAME” (Sionna Therapeutics Inc., priority 2023, published 2026)

What follows are compounds tested on NBD1 (assay: Aggregation analysis of NBD1 thermal stability by differential static light scattering (DSLS)). Conditions: 100 μM compound; ΔTagg versus DMSO control.
Assay type: binding, Human
Experimental: Purified recombinant NBD1 was produced using previously described methods (A. Schmidt, J. L. Mendoza, P. J. Thomas (2011) Biochemical and Biophysical Approaches to Probe CFTR Structure (365-376) M. D. Amaral, K. Kunzelmann (eds.), Cystic Fibrosis, Methods in Molecular Biology 741, Springer Science+Business Media). The effect of test compounds on thermal stability of NBD1 was evaluated by differential static light scattering (DSLS) using the Harbinger Stargazer-384 instrument (Epiphyte Three, Toronto, Canada). Test compounds were dissolved and diluted to desired concentrations in 100% DMSO. The compounds or DMSO controls (100 nL) were stamped into wells of a […] low volume optical plate (Corning Inc., Corning, NY) using the Echo 555 acoustic liquid handler (Labcyte Inc., San Jose, CA).
NBD1 protein was diluted to 0.2 mg/ml in S200 buffer (50 mM Tris-HCl, 150 mM NaCl, 5 mM MgCl2, 2 mM ATP, 2 mM DTT, pH7.6) containing 1% glycerol. 10 uL of protein solution was aliquoted into the 384-well plate harboring the test compounds and 10 uL mineral oil was overlayed onto the protein solution, using the epMotion robotic liquid handler (Eppendorf North America, Hauppauge, NY). After placing into the Stargazer instrument, the plate was heated at 1° C. per minute to 70° C. Images were captured from 25° C. to 70° C. every 0.5° C. At the end of the experiment run, instrument software integrated image files and analyzed data automatically. A […] regression curve was generated for each well, representing the increase in light scattering over time. A temperature of aggregation (Tagg) was calculated based on the inflection point of the curve. To better compare data across experiments the average Tagg for DMSO control wells was calculated and subtracted from values for wells containing compounds to obtain a “ΔTagg” value. These ΔTagg values reflect stabilizing efficacy of the compounds.
In the case of `Cn1nccc1C(O)c1cnc(-c2cccc(Oc3ccc4[nH]ccc4n3)c2)[nH]1` (stereo not shown) [Compound 33, (2-(3-((1H-pyrrolo[3,2-b]pyridin-5-yl)oxy)phenyl)-1H-imidazol-5-yl)(1-methyl-1H-pyrazol-5-yl)methanol], the “DSLS NBD1/3D Human Stability delta-T (° C.) @ 100 (μM)” value (“DSLS NBD1/3D Human Stability delta-T” below) was “C (C: ≤4° C.)”.
`Cc1ncc(C(N)c2nnc(-c3cccc(Oc4ccc5[nH]cnc5c4)c3)[nH]2)s1` (stereo not shown) [Compound 36, (5-(3-((1H-benzo[d]imidazol-5-yl)oxy)phenyl)-4H-1,2,4-triazol-3-yl)(2-methylthiazol-5-yl)methanamine] was tested, and the “DSLS NBD1/3D Human Stability delta-T” value was “C (C: ≤4° C.)”.
In the case of `c1cc(Oc2ccc3[nH]ccc3c2)cc(-c2nnc(Cc3nccs3)[nH]2)c1` [Compound 12, 2-((5-(3-((1H-indol-5-yl)oxy)phenyl)-4H-1,2,4-triazol-3-yl)methyl)thiazole], the “DSLS NBD1/3D Human Stability delta-T” value was “C (C: ≤4° C.)”.
`Cc1nc(Cc2nnc(-c3cccc(Oc4ccc5[nH]ccc5c4)c3)[nH]2)cs1` [Compound 17, 4-((5-(3-((1H-indol-5-yl)oxy)phenyl)-4H-1,2,4-triazol-3-yl)methyl)-2-methylthiazole] was tested, and the “DSLS NBD1/3D Human Stability delta-T” value was “C (C: ≤4° C.)”.
In the case of `O[C@@H](Cc1cncs1)c1c[nH]c(-c2cccc(Oc3ccc4[nH]ccc4c3)c2)n1` (single isomer, unassigned) [Compound 24], the “DSLS NBD1/3D Human Stability delta-T” value was “C (C: ≤4° C.)”.
In the case of `Cc1ncc(C(O)c2nnc(-c3cccc(Oc4ccc5[nH]cnc5c4)c3)[nH]2)s1` (stereo not shown) [Compound 35, (5-(3-((1H-benzo[d]imidazol-5-yl)oxy)phenyl)-4H-1,2,4-triazol-3-yl)(2-methylthiazol-5-yl)methanol], the “DSLS NBD1/3D Human Stability delta-T” value was “C (C: ≤4° C.)”.
For `CC(c1cccc(CCC(=O)O)c1F)c1nc(-c2cc(Oc3c(F)cc4[nH]ccc4c3F)ccc2F)n2ccccc12` (stereo not shown) [Compound 46, 3-(3-(1-(3-(5-((4,6-difluoro-1H-indol-5-yl)oxy)-2-fluorophenyl)imidazo[1,5-a]pyridin-1-yl)ethyl)-2-fluorophenyl)propanoic acid], the “DSLS NBD1/3D Human Stability delta-T” value was “C (C: ≤4° C.)”.
With `NC(=O)CCc1ncc(Cc2cnc(-c3cc(Oc4c(F)cc5[nH]ccc5c4F)ccc3F)[nH]2)s1` [Compound 3, 3-(5-((2-(5-((4,6-difluoro-1H-indol-5-yl)oxy)-2-fluorophenyl)-1H-imidazol-5-yl)methyl)thiazol-2-yl)propanamide] the “DSLS NBD1/3D Human Stability delta-T” value was “C (C: ≤4° C.)”.
In the case of `O=C(O)CCn1ccc(Cc2cnc(-c3cc(Oc4c(F)cc5[nH]ccc5c4F)ccc3F)[nH]2)n1` [Compound 5, 3-(3-((2-(5-((4,6-difluoro-1H-indol-5-yl)oxy)-2-fluorophenyl)-1H-imidazol-5-yl)methyl)-1H-pyrazol-1-yl)propanoic acid], the “DSLS NBD1/3D Human Stability delta-T” value was “B (B: 4-8° C.)”.
For `O=C(O)CCc1ncc(Cc2cnc(-c3cc(Oc4c(F)cc5[nH]ccc5c4F)ccc3F)[nH]2)s1` [Compound 2, 3-(5-((2-(5-((4,6-difluoro-1H-indol-5-yl)oxy)-2-fluorophenyl)-1H-imidazol-5-yl)methyl)thiazol-2-yl)propanoic acid], the “DSLS NBD1/3D Human Stability delta-T” value was “B (B: 4-8° C.)”.
In the case of `Cc1ccc(C(O)c2c[nH]c(-c3cccc(Oc4ccc5[nH]ccc5c4)c3)n2)s1` (stereo not shown) [Compound 20, (2-(3-((1H-indol-5-yl)oxy)phenyl)-1H-imidazol-4-yl)(5-methylthiophen-2-yl)methanol], the “DSLS NBD1/3D Human Stability delta-T” value was “B (B: 4-8° C.)”.
In the case of `Cc1cnc(Cc2nnc(-c3cccc(Oc4ccc5[nH]ccc5c4)c3)[nH]2)s1` [Compound 16, 2-((5-(3-((1H-indol-5-yl)oxy)phenyl)-4H-1,2,4-triazol-3-yl)methyl)-5-methylthiazole], the “DSLS NBD1/3D Human Stability delta-T” value was “C (C: ≤4° C.)”.
In the case of `O=C(O)CCc1cccc(Cc2cc(N3CCCCC3=O)n(-c3cc(Oc4c(F)cc5[nH]ccc5c4F)ccc3F)n2)c1` [Compound 57, 3-[3-[[1-[5-[(4,6-difluoro-1H-indol-5-yl)oxy]-2-fluoro-phenyl]-5-(2-oxo-1-piperidyl)pyrazol-3-yl]methyl]phenyl]propanoic acid], the “DSLS NBD1/3D Human Stability delta-T” value was “C (C: ≤4° C.)”.
In the case of `OCc1c(Oc2cccc(-c3nnc(C(O)c4cncs4)[nH]3)c2)ccc2[nH]ccc12` (stereo not shown) [Compound 40, (5-(3-((4-(hydroxymethyl)-1H-indol-5-yl)oxy)phenyl)-4H-1,2,4-triazol-3-yl)(thiazol-5-yl)methanol], the “DSLS NBD1/3D Human Stability delta-T” value was “B (B: 4-8° C.)”.
For `CSc1cc(C(C)c2cccc(CCC(=O)O)c2F)nn1-c1cc(Oc2c(F)cc3[nH]ccc3c2F)ccc1F` (stereo not shown) [Compound 52, 3-(3-(1-(1-(5-((4,6-difluoro-1H-indol-5-yl)oxy)-2-fluorophenyl)-5-(methylthio)-1H-pyrazol-3-yl)ethyl)-2-fluorophenyl)propanoic acid], the “DSLS NBD1/3D Human Stability delta-T” value was “C (C: ≤4° C.)”.
In the case of `OC(Cc1nccs1)c1cnc(-c2cccc(Oc3ccc4[nH]cnc4c3)c2)[nH]1` (stereo not shown) [Compound 34, 1-(2-(3-((1H-benzo[d]imidazol-5-yl)oxy)phenyl)-1H-imidazol-5-yl)-2-(thiazol-2-yl)ethan-1-ol], the “DSLS NBD1/3D Human Stability delta-T” value was “C (C: ≤4° C.)”.
With `Cc1ccc(Cc2nnc(-c3cccc(Oc4cc5cc[nH]c5cn4)c3)[nH]2)s1` [Compound 8, 5-(3-(5-((5-methylthiophen-2-yl)methyl)-4H-1,2,4-triazol-3-yl)phenoxy)-1H-pyrrolo[2,3-c]pyridine] the “DSLS NBD1/3D Human Stability delta-T” value was “C (C: ≤4° C.)”.
In the case of `Cn1cc(C(O)c2cnc(-c3cccc(Oc4ccc5[nH]ccc5n4)c3)[nH]2)cn1` (stereo not shown) [Compound 32, (2-(3-((1H-pyrrolo[3,2-b]pyridin-5-yl)oxy)phenyl)-1H-imidazol-5-yl)(1-methyl-1H-pyrazol-4-yl)methanol], the “DSLS NBD1/3D Human Stability delta-T” value was “C (C: ≤4° C.)”.
For `CC(c1cc(N)n(-c2cc(Oc3c(F)cc4[nH]ccc4c3F)ccc2F)n1)c1cccc(CCC(=O)O)c1F` (stereo not shown) [Compound 48, 3-(3-(1-(5-amino-1-(5-((4,6-difluoro-1H-indol-5-yl)oxy)-2-fluorophenyl)-1H-pyrazol-3-yl)ethyl)-2-fluorophenyl)propanoic acid], the “DSLS NBD1/3D Human Stability delta-T” value was “B (B: 4-8° C.)”.
In the case of `c1cc(Oc2ccc3[nH]ccc3c2)cc(-c2nnc(Cc3cscn3)[nH]2)c1` [Compound 13, 4-((5-(3-((1H-indol-5-yl)oxy)phenyl)-4H-1,2,4-triazol-3-yl)methyl)thiazole], the “DSLS NBD1/3D Human Stability delta-T” value was “C (C: ≤4° C.)”.
`CCOc1cc(C(C)c2cccc(CCC(=O)O)c2F)nn1-c1cc(Oc2c(F)cc3[nH]ccc3c2F)ccc1F` (stereo not shown) [Compound 49, 3-(3-(1-(1-(5-((4,6-Difluoro-1H-indol-5-yl)oxy)-2-fluorophenyl)-5-ethoxy-1H-pyrazol-3-yl)ethyl)-2-fluorophenyl)propanoic acid] was tested, and the “DSLS NBD1/3D Human Stability delta-T” value was “B (B: 4-8° C.)”.
For `CC(c1cccc(CC(=O)O)c1F)n1cc(F)c(-c2ccc(F)c(Oc3c(F)cc4[nH]ccc4c3S(C)(=O)=O)c2)n1` (stereo not shown) [Compound 55, 2-(2-fluoro-3-(1-(4-fluoro-3-(4-fluoro-3-((6-fluoro-4-(methylsulfonyl)-1H-indol-5-yl)oxy)phenyl)-1H-pyrazol-1-yl)ethyl)phenyl)acetic acid], the “DSLS NBD1/3D Human Stability delta-T” value was “A (A: T ≥8° C.)”.
For `OC(c1c[nH]c(-c2cccc(Oc3ccc4[nH]ccc4c3)c2)n1)c1nccs1` (stereo not shown) [Compound 21, (2-(3-((1H-indol-5-yl)oxy)phenyl)-1H-imidazol-4-yl)(thiazol-2-yl)methanol], the “DSLS NBD1/3D Human Stability delta-T” value was “B (B: 4-8° C.)”.
`Cn1cc(C(O)c2cnc(-c3cccc(Oc4ccc5[nH]ccc5c4)c3)[nH]2)cn1` (stereo not shown) [Compound 27, (2-(3-((1H-indol-5-yl)oxy)phenyl)-1H-imidazol-5-yl)(1-methyl-1H-pyrazol-4-yl)methanol] was tested, and the “DSLS NBD1/3D Human Stability delta-T” value was “B (B: 4-8° C.)”.
`C[C@H](c1nc(-c2cc(Oc3c(F)cc4[nH]ccc4c3F)ccc2F)n(C)n1)c1ccc(CCC(=O)O)s1` (single isomer, unassigned) [Compound 45] was tested, and the “DSLS NBD1/3D Human Stability delta-T” value was “A (A: T ≥8° C.)”.
`O=C(O)CCc1cccc(Cc2cc(NCCO)n(-c3cc(Oc4c(F)cc5[nH]ccc5c4F)ccc3F)n2)c1` [Compound 56, 3-(3-((1-(5-((4,6-difluoro-1H-indol-5-yl)oxy)-2-fluorophenyl)-5-((2-hydroxyethyl)amino)-1H-pyrazol-3-yl)methyl)phenyl) propanoic acid] was tested, and the “DSLS NBD1/3D Human Stability delta-T” value was “B (B: 4-8° C.)”.
`c1cc(Oc2ccc3[nH]ccc3c2)cc(-c2nnc(Cc3cncs3)[nH]2)c1` [Compound 14, 5-((5-(3-((1H-indol-5-yl)oxy)phenyl)-4H-1,2,4-triazol-3-yl)methyl)thiazole] was tested, and the “DSLS NBD1/3D Human Stability delta-T” value was “C (C: ≤4° C.)”.
For `Cc1c[nH]c2cc(F)c(Oc3ccc(F)c(-c4ccn(Cc5cnc(CCC(N)=O)s5)n4)c3)cc12` [Compound 7, 3-(5-((3-(2-fluoro-5-((6-fluoro-3-methyl-1H-indol-5-yl)oxy)phenyl)-1H-pyrazol-1-yl)methyl)thiazol-2-yl)propanamide], the “DSLS NBD1/3D Human Stability delta-T” value was “C (C: ≤4° C.)”.
